Test results published in the supplement of paper PMC13380429.

How the values were obtained:
Conditions in all cases: 72 h
Caco-2 [1] = assay: cell viability relative to DMSO; higher = less toxic
Calu-3 [2] = assay: as above
HepG2 [3] = assay: as above
U2OS [4] = assay: as above
Vero E6 [5] = assay: as above
Calu-3 [6] = assay: relative viability EC50 (midpoint between 100% and the lowest measured viability); higher = less toxic
HepG2 [7] = assay: as above
U2OS [8] = assay: as above
Vero E6 [9] = assay: as above
Caco-2 [10] = assay: drug sensitivity score (DSS) for viability; higher = more toxic; extreme values may be limits of the assay
Calu-3 [11] = assay: as above
HepG2 [12] = assay: as above
U2OS [13] = assay: as above
Vero E6 [14] = assay: as above
Caco-2 [15] = assay: relative viability EC50 (midpoint between 100% and the lowest measured viability); higher = less toxic

| SMILES | cell viability (Caco-2 [1]; 1 nM) [%] | cell viability (Caco-2 [1]; 10 nM) [%] | cell viability (Caco-2 [1]; 100 nM) [%] | cell viability (Caco-2 [1]; 1000 nM) [%] | cell viability (Caco-2 [1]; 10000 nM) [%] | cell viability (Calu-3 [2]; 1 nM) [%] | cell viability (Calu-3 [2]; 10 nM) [%] | cell viability (Calu-3 [2]; 100 nM) [%] | cell viability (Calu-3 [2]; 1000 nM) [%] | cell viability (Calu-3 [2]; 10000 nM) [%] | cell viability (HepG2 [3]; 1 nM) [%] | cell viability (HepG2 [3]; 10 nM) [%] | cell viability (HepG2 [3]; 100 nM) [%] | cell viability (HepG2 [3]; 1000 nM) [%] | cell viability (HepG2 [3]; 10000 nM) [%] | cell viability (U2OS [4]; 1 nM) [%] | cell viability (U2OS [4]; 10 nM) [%] | cell viability (U2OS [4]; 100 nM) [%] | cell viability (U2OS [4]; 1000 nM) [%] | cell viability (U2OS [4]; 10000 nM) [%] | cell viability (Vero E6 [5]; 1 nM) [%] | cell viability (Vero E6 [5]; 10 nM) [%] | cell viability (Vero E6 [5]; 100 nM) [%] | cell viability (Vero E6 [5]; 1000 nM) [%] | cell viability (Vero E6 [5]; 10000 nM) [%] | relative viability EC50 (Calu-3 [6]) [µM] | relative viability EC50 (HepG2 [7]) [µM] | relative viability EC50 (U2OS [8]) [nM] | relative viability EC50 (Vero E6 [9]) [nM] | drug sensitivity score (Caco-2 [10]) | drug sensitivity score (Calu-3 [11]) | drug sensitivity score (HepG2 [12]) | drug sensitivity score (U2OS [13]) | drug sensitivity score (Vero E6 [14]) | relative viability EC50 (Caco-2 [15]) [nM] |
| --- | --- | --- | --- | --- | --- | --- | --- | --- | --- | --- | --- | --- | --- | --- | --- | --- | --- | --- | --- | --- | --- | --- | --- | --- | --- | --- | --- | --- | --- | --- | --- | --- | --- | --- | --- |
| COc1ccc(OC)c(CN(C(C)=O)c2cc(F)ccc2Oc2ccccc2)c1 [DAA-1106] | 93.4 | 112 | 93.1 | 108 | 71.4 | 103 | 102 | 93.7 | 98.5 | 98.1 | 102 | 105 | 99.2 | 95.7 | 96 | 102 | 107 | 100 | 96.5 | 93.6 | 102 | 99 | 103 | 107 | 101 | > 10 | > 10 | > 10000 | > 10000 | 0.9 | 0 | 0 | 0 | 0 |  |
| CSc1nc(N)cc(Oc2ccc(-c3nnc(Nc4cccc(C(F)(F)F)c4)[nH]3)cc2)n1 [KG-5] | 96.7 | 98.7 | 105 | 84.1 | 35.2 | 90.3 | 95.4 | 92.7 | 93.2 | 61.8 | 93.9 | 96 | 92.5 | 99.6 | 25.2 | 102 | 101 | 97.5 | 92.9 | 34.7 | 98.9 | 103 | 105 | 94.8 | 33.1 |  | 3.12 | 2260 | 2540 | 6 | 3 | 4.2 | 4.8 | 4.5 | 1570 |
| N#Cc1c(-c2ccccc2)cc(-c2cc(Br)ccc2O)[nH]c1=O [TCS-PIM-1-1] | 96.7 | 101 | 104 | 97.5 | 88.8 |  |  |  |  |  | 94.9 | 99.4 | 99.7 | 94.5 | 99.2 | 99 | 96.3 | 102 | 97.6 | 93.9 | 96.9 | 101 | 95.5 | 96 | 93.1 |  | > 10 | > 10000 | > 10000 | 0.1 |  | 0 | 0 | 0 | > 10000 |
| CC(=O)[C@]1(N)Cc2c(O)c3c(c(O)c2[C@@H](O[C@H]2C[C@H](O)[C@H](O)CO2)C1)C(=O)c1ccccc1C3=O [amrubicin] | 101 | 105 | 99.6 | 86.9 | 7.4 | 96 | 117 | 114 | 110 | 86.7 | 105 | 110 | 103 | 84.5 | -0.2 | 104 | 99 | 102 | 102 | 73.7 | 96 | 104 | 99.8 | 88.4 | 32.1 | > 10 | 1.96 |  | 1870 | 7.3 | 0 | 8.1 | 0.9 | 5.7 | 2040 |
| CO[C@@]1(NC(=O)CSCC#N)C(=O)N2C(C(=O)O)=C(CSc3nnnn3C)CS[C@@H]21 [cefmetazole] | 109 | 106 | 108 | 94.7 | 105 | 101 | 97.6 | 99.7 | 108 | 108 | 106 | 105 | 99.7 | 97.4 | 117 |  |  |  |  |  | 96.7 | 102 | 102 | 97.9 | 93.2 | > 10 | > 10 |  | > 10000 | 0 | 0 | 0 |  | 0 | > 10000 |
| CC1(COc2ccc3c(c2)ncn3-c2ccc3cccc(N4CCC(N)CC4)c3n2)COC1 [crenolanib] | 101 | 97.1 | 102 | 112 | 94.5 |  |  |  |  |  | 107 | 103 | 107 | 101 | 9.5 | 106 | 102 | 106 | 101 | 9.4 | 102 | 104 | 101 | 102 | 22.6 |  | 3.26 | 3260 | 3300 | 0 |  | 4.9 | 4.9 | 4.1 | > 10000 |
| c1cc(-c2cnn3cc(-c4ccc(OCCN5CCCCC5)cc4)cnc23)ccn1 [dorsomorphin] | 96.8 | 96.6 | 89.4 | 95.1 | 56.5 | 102 | 95.6 | 99.4 | 98.9 | 47.4 | 103 | 103 | 90.5 | 93.1 | 11.6 | 102 | 104 | 95.9 | 91.4 | 16.7 | 98.5 | 94.5 | 102 | 96.8 | 9.1 | 3.02 | 2.52 | 2310 | 2900 | 3 | 2.9 | 6 | 6 | 5.5 |  |
| COC(=O)/C=C/c1cc(O)ccc1O [erbstatin-analog] | 97.7 | 102 | 91.8 | 94.3 | 40.9 | 113 | 97.6 | 106 | 99.2 | 73.3 | 92 | 101 | 99.8 | 102 | 50 | 101 | 103 | 95.2 | 97.4 | 34.8 | 98.8 | 96.1 | 94.7 | 74.8 | 22.6 |  | 3.37 | 2860 | 1410 | 4.1 | 1.2 | 2.5 | 3.9 | 7.6 | 2370 |
